According to PubChem BioAssay (NCI):
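Values below derive from 48-hour exposures of cells grown in 96-well plates, with endpoints linearly interpolated between the two concentrations bracketing the appropriate inhibition level. TGI denotes the concentration required for complete inhibition of growth.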

Legend:
Assay in all cases: NCI tumour cell line growth inhibition, 48 h
A498 renal = tested on: A498 renal
DMS 273 small cell lung = tested on: DMS 273 small cell lung
P388 leukemia = tested on: P388 leukemia
P388/ADR leukemia = tested on: P388/ADR leukemia
SN12K1 renal = tested on: SN12K1 renal
DU-145 prostate = tested on: DU-145 prostate
HS 578T breast = tested on: HS 578T breast
MDA-N = tested on: MDA-N
PC-3 prostate = tested on: PC-3 prostate
RXF-631 renal = tested on: RXF-631 renal
XF 498 CNS = tested on: XF 498 CNS

| SMILES | TGI (A498 renal) | TGI (DMS 273 small cell lung) | TGI (DU-145 prostate) | TGI (HS 578T breast) | TGI (MDA-N) | TGI (PC-3 prostate) | other results |
| --- | --- | --- | --- | --- | --- | --- | --- |
| N/C(=N\N=C/c1c(O)cc(O)cc1O)NO | > 100 µM | > 31.6 µM | – | – | – | – | TGI (P388 leukemia): > 100 µM; TGI (P388/ADR leukemia): > 100 µM; TGI (SN12K1 renal): > 100 µM |
| CN1Cc2ccccc2C2(COc3ccccc3C2=O)C1 (configuration not stated) | – | > 100 µM | – | – | – | – | – |
| Cc1cc(C)c(S(=O)(=O)N(CCCCCN)OCCCN)c(C)c1 | – | – | 31.2 µM | 40 µM | 31.4 µM | 28.8 µM | – |
| CC(=O)c1c(-c2ccco2)c(C#N)c(=S)n(C2OC(CO)C(O)C(O)C2O)c1C (configuration not stated) | – | – | > 100 µM | > 100 µM | > 100 µM | > 100 µM | – |
| CN1COCN=C1NC#N | > 100 µM | – | – | – | – | – | TGI (RXF-631 renal): > 100 µM; TGI (XF 498 CNS): > 100 µM |
